Source: patent US12509424B2, “Compound and composition as PDGF receptor kinase inhibitor” (NIPPON SHINYAKU CO., LTD., priority 2019, dated 2025)
pIC50: −log10 of the molar value. Like-named read-outs stand apart in the source and are kept apart here.

Tests used:
[1] = target: PDGFR-β (Homo sapiens (Human), UniProt P09619); assay: PDGFR-β tyrosine kinase inhibitory action (HTRF KinEASE-TK); type: biochemical; conditions: PDGFR-β enzyme 1 ng/μL, 30° C. for 30 minutes; read-out: PDGF-β IC50
Summary of the method: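 Recombinant PDGFR-β at 1 ng/μL final with TK substrate-3-biotin in a substrate solution containing 0.6 μM ATP; buffer 50 mM HEPES pH 7.0, 5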

[2] = target: TEL-PDGFRβ fusion gene transfected cells (Ba/F3); assay: Suppression of proliferation of TEL-PDGFRβ fusion gene transfected Ba/F3 cells; type: cell-based, human; conditions: TEL-PDGFRβ expressing Ba/F3 cells, 72 hours, final concentration 0.1 to 10,000 nM; read-out: PDGFR β/BaF3 proliferation inhibition (IC50)
Text: 2. Preparation of Test Substance
4. Analysis of Measurement Results

[3] = system: pulmonary arterial smooth muscle cells; assay: Suppression of proliferation of pulmonary arterial smooth muscle cells (PDGF-BB stimulation, BrdU); type: cell-based; conditions: PASMC, read-out: Human normal PASMC proliferation suppression (PDGF stimulation_IC50)
Summary of the method: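 Test compound (final 3 to 10,000 nM) was added together with BrdU and PDGF-BB (final 10 ng/mL) to healthy human pulmonary artery smooth muscle cells held a day in 0.1% FBS. Proliferation was read after 1 day as anti-BrdU-detected BrdU incorporation.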

[4] = target: TEL-KIT fusion gene transfected cells (Ba/F3); assay: Suppression of proliferation of TEL-KIT fusion gene transfected Ba/F3 cells; conditions: read-out: KIT/BaF3 proliferation inhibition (IC50); TEL-KIT expressing Ba/F3 cells, 72 hours, final concentration 0.1 to 10,000 nM;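 note: viable cells quantified via formazan from tetrazolium reduction, inhibition scaled with 0.1% DMSO control as 0% and medium-only blank as 100%, IC50 from two-parameter logistic fit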
[5] = human PDGF-BB 10 ng/mL, BrdU uptake, final concentration 3 to 10,000 nM
[6] = 24 h, healthy human derived pulmonary arterial smooth muscle cells, human PDGF-BB 10 ng/mL stimulation, BrdU uptake after 1 day, test substance final concentration 3 to 10,000 nM

Sequence of TEL-KIT fusion gene transfected cells (Ba/F3) (P10721 26-976 limits assumed, change not shown): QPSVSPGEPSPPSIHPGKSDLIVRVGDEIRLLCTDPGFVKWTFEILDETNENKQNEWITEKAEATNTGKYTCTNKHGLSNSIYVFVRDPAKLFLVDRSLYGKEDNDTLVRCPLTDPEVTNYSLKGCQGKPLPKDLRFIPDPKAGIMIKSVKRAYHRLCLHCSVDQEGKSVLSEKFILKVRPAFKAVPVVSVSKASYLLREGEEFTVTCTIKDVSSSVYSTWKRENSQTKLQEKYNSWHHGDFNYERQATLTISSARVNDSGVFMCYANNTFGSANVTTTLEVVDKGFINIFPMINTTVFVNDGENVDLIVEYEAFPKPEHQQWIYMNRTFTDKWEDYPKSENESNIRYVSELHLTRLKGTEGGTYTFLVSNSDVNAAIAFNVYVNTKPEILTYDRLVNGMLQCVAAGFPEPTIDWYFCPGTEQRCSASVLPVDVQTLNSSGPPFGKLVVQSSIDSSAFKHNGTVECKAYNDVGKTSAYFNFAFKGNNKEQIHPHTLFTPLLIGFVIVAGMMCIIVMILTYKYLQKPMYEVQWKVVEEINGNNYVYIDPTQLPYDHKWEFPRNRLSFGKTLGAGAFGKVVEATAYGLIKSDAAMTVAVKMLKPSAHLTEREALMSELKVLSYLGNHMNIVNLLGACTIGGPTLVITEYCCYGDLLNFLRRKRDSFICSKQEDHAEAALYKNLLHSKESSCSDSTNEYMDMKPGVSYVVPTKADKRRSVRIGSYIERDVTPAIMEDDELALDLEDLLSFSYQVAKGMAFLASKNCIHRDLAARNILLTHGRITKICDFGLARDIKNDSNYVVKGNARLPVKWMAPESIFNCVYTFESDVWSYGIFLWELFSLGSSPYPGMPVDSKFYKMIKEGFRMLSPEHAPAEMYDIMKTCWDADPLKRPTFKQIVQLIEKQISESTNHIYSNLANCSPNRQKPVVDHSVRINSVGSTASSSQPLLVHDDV
Sequence of TEL-PDGFRβ fusion gene transfected cells (Ba/F3) (P09619 33-1106 limits assumed, change not shown): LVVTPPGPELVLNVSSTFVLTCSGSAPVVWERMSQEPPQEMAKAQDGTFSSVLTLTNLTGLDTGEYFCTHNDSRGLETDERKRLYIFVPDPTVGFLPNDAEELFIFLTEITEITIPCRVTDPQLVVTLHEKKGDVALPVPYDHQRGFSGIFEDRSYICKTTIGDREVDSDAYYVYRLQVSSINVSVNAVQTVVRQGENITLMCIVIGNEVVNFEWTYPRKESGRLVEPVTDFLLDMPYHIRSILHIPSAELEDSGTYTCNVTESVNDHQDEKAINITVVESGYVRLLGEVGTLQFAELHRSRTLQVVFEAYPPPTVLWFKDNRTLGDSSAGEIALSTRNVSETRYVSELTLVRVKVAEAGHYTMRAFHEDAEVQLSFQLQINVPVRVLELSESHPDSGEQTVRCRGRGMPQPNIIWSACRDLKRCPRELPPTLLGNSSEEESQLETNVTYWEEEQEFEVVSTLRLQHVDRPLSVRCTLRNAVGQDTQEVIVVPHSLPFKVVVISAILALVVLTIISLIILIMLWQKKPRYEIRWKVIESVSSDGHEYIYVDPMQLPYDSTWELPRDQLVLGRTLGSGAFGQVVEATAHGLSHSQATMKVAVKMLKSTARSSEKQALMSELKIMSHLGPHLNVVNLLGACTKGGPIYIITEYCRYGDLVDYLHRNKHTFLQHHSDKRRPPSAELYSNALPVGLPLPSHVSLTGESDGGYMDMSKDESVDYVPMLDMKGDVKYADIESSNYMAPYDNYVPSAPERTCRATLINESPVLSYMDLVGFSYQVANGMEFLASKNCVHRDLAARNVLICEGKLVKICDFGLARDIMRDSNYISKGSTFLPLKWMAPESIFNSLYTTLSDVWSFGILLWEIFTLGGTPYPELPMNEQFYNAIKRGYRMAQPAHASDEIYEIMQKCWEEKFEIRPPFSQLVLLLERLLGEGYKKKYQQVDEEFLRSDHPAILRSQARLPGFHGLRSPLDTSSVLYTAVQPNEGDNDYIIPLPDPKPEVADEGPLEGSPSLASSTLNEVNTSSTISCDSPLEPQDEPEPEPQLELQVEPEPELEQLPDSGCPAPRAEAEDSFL
Sequence of PDGFR-β (P09619 33-1106): as the sequence (P09619 33-1106 limits assumed, change not shown) above

Row | Compound | pIC50 [1] | pIC50 [2] | pIC50 [4] | pIC50 [3, 5] | pIC50 [3, 6]
1 | Cc1ccc(C(=O)N[C@H]2CCCC[C@@H]2O)cc1NC(=O)c1cncc(OC2CCC(F)(F)CC2)c1 [Example 28, 5-[(4,4-difluorocyclohexyl)oxy]-N-(5-{[(1S,2S)-2-hydroxycyclohexyl]carbamoyl}-2-methylphenyl)pyridine-3-carboxamide] | 6.77 | 7.30 | 5.24 | 6.55 | –
2 | Cc1ccc(C(=O)N[C@H]2CCCC[C@@H]2O)cc1NC(=O)c1cnc(NC2(C)CCC2)s1 [Example 40, N-(5-{[(1S,2S)-2-hydroxycyclohexyl]carbamoyl}-2-methylphenyl)-2-[(1-methylcyclobutyl)amino]-1,3-thiazole-5-carboxamide] | 7.37 | 8.34 | 5.92 | – | 7.12
3 | Cc1ccc(C(=O)N[C@H]2CCCC[C@@H]2O)cc1C#Cc1cncc(Br)c1 [Example 61, 3-[(5-bromopyridin-3-yl)ethynyl]-N-[(1S,2S)-2-hydroxycyclohexyl]-4-methylbenzamide] | 7.39 | 7.74 | 6.08 | – | 7.74
4 | Cc1ccc(C(=O)N[C@H]2CCCC[C@@H]2O)cc1NC(=O)c1cncc(OC2CC(F)(F)C2)c1 [Example 47, 5-[(3,3-difluorocyclobutyl)oxy]-N-(5-{[(1S,2S)-2-hydroxycyclohexyl]carbamoyl}-2-methylphenyl)pyridine-3-carboxamide] | 6.41 | 7.12 | 5.15 | – | 6.46
5 | Cc1ccc(C(=O)N[C@H]2CCCC[C@@H]2O)cc1N[C@@H](C)c1cncc(-c2ccncc2)c1 [Example 87, 3-{[(1S)-1-([3,4′-bipyridin]-5-yl)ethyl]amino}-N-[(1S,2S)-2-hydroxycyclohexyl]-4-methylbenzamide] | 6.60 | 7.57 | 5.00 | – | 6.46
6 | Cc1c(F)cc(C(=O)N[C@H]2CCCC[C@@H]2O)cc1Nc1cccc(-c2cccnc2)n1 [Example 81, 3-[([2,3′-bipyridin]-6-yl)amino]-5-fluoro-N-[(1S,2S)-2-hydroxycyclohexyl]-4-methylbenzamide] | 6.72 | 6.85 | 5.48 | – | 6.96
7 | Cc1ccc(C(=O)N[C@H]2CCCC[C@@H]2O)cc1NC(=O)c1cnc(NC(C)(C)C)s1 [Example 38, 2-(tert-butylamino)-N-(5-{[(1S,2S)-2-hydroxycyclohexyl]carbamoyl}-2-methylphenyl)-1,3-thiazole-5-carboxamide] | 7.10 | 8.14 | 5.92 | – | 6.68
8 | Cc1ccc(C(=O)N[C@H]2CCCC[C@@H]2O)cc1NC(=O)c1cncc(-c2ccc(C(F)(F)F)cc2F)c1 [Example 36, 5-[2-fluoro-4-(trifluoromethyl)phenyl]-N-(5-{[(1S,2S)-2-hydroxycyclohexyl]carbamoyl}-2-methylphenyl)pyridine-3-carboxamide] | 6.89 | 7.60 | 5.46 | – | 7.04
9 | O=C(Nc1cc(C(=O)N[C@H]2CCCC[C@@H]2O)ccc1Cl)c1cncc(OCC2CC2)c1 [Example 44, N-(2-chloro-5-{[(1S,2S)-2-hydroxycyclohexyl]carbamoyl}phenyl)-5-(cyclopropylmethoxy)pyridine-3-carboxamide] | 6.72 | 7.68 | 6.03 | – | 6.85
10 | Cc1ccc(C(=O)N[C@H]2CCCC[C@@H]2O)cc1NCc1cnc(N)nc1 [Example 113, 3-{[(2-aminopyrimidin-5-yl)methyl]amino}-N-[(1S,2S)-2-hydroxycyclohexyl]-4-methylbenzamide] | 7.08 | 9.70 | 6.15 | – | 7.29
11 | Cc1ccc(C(=O)N[C@H]2CCCC[C@@H]2O)cc1C(C)Nc1cncc(-c2ccccc2)n1 (stereo partly drawn) [Example 164, N-[(1S,2S)-2-hydroxycyclohexyl]-4-methyl-3-{1-[(6-phenylpyrazin-2-yl)amino]ethyl}benzamide] | 6.96 | 6.74 | 5.85 | – | 6.96
12 | Cc1ccc(C(=O)N[C@H]2CCCC[C@@H]2O)cc1NC(=O)c1cnc(NCC(C)(C)C)s1 [Example 41, 2-[(2,2-dimethylpropyl)amino]-N-(5-{[(1S,2S)-2-hydroxycyclohexyl]carbamoyl}-2-methylphenyl)-1,3-thiazole-5-carboxamide] | 6.89 | 7.46 | 5.68 | – | 6.68

These reach a higher pIC50 [1]. Values come first.

Row | pIC50 [1] | pIC50 [2] | pIC50 [4] | Compound | pIC50 [3, 5] | pIC50 [3, 6]
13 | 7.64 | 7.77 | 6.19 | Cc1ccc(C(=O)N[C@H]2CCCC[C@@H]2O)cc1NC(=O)c1cncc(-c2ccc(C3CC3)cc2)c1 [Example 43, 5-(4-cyclopropylphenyl)-N-(5-{[(1S,2S)-2-hydroxycyclohexyl]carbamoyl}-2-methylphenyl)pyridine-3-carboxamide] | – | 7.14
14 | 7.41 | 7.70 | 6.28 | COc1ccc(-c2cncc(C(=O)Nc3cc(C(=O)N[C@H]4CCCC[C@@H]4O)ccc3C)c2)cc1 [Example 18, N-(5-{[(1S,2S)-2-hydroxycyclohexyl]carbamoyl}-2-methylphenyl)-5-(4-methoxyphenyl)pyridine-3-carboxamide] | 7.33 | –
15 | 7.92 | 7.85 | 6.77 | Cc1ccc(C(=O)N[C@H](CO)c2ccccc2)cc1NC(=O)c1cncc(-c2ccccc2)c1 [Example 6, N-(5-{[(1S)-2-hydroxy-1-phenylethyl]carbamoyl}-2-methylphenyl)-5-phenylpyridine-3-carboxamide] | 7.64 | –
16 | 7.82 | 9.10 | 7.04 | Cc1ccc(C(=O)N[C@H]2CCCC[C@@H]2O)cc1NC(=O)c1cnc2sccn12 [Example 45, N-(5-{[(1S,2S)-2-hydroxycyclohexyl]carbamoyl}-2-methylphenyl)imidazo[2,1-b][1,3]thiazole-5-carboxamide] | – | 7.25
17 | 7.60 | 8.24 | 6.48 | Cc1ccc(C(=O)N[C@H]2CCCC[C@@H]2O)cc1C#Cc1cncc(-c2ccccc2F)n1 [Example 69, 3-{[6-(2-fluorophenyl)pyrazin-2-yl]ethynyl}-N-[(1S,2S)-2-hydroxycyclohexyl]-4-methylbenzamide] | – | 7.21
18 | 7.66 | 6.89 | 5.89 | Cc1ccc(C(=O)N[C@H]2CCCC[C@@H]2O)cc1NC(=O)c1cncc(NCC2CC2)c1 [Example 16, 5-[(cyclopropylmethyl)amino]-N-(5-{[(1S,2S)-2-hydroxycyclohexyl]carbamoyl}-2-methylphenyl)pyridine-3-carboxamide] | 7.09 | –
19 | 7.62 | 8.25 | 7.00 | Cc1ccc(C(=O)N[C@H]2CCCC[C@@H]2O)cc1CNc1cncc(-c2ncccn2)c1 [Example 147, N-[(1S,2S)-2-hydroxycyclohexyl]-4-methyl-3-({[5-(pyrimidin-2-yl)pyridin-3-yl]amino}methyl)benzamide] | – | 7.28
20 | 7.77 | 7.89 | 6.51 | Cc1ccc(C(=O)N[C@H]2CCCC[C@@H]2O)cc1NC(=O)c1cncc(-c2cccc(Cl)c2)c1 [Example 11, 5-(3-chlorophenyl)-N-(5-{[(1S,2S)-2-hydroxycyclohexyl]carbamoyl}-2-methylphenyl)pyridine-3-carboxamide] | 7.31 | –
